Where “and” joins values, the source holds several entries; their conditions need not be identical. Equal entries are not always repeated. Entries after “also recorded” stand apart in the source; their conditions may differ. Structures can show the parent of a compound that is named as a salt.
Key:
[1] = test system: Jurkat-DNR cells
[2] = test system: Ig-MXP3 cells; test: Direct cytotoxicity; assay type: cell-based
[3] = molecular target: T1, ABCB1 (Homo sapiens, UniProt P08183); test: JC-1 efflux inhibition dose-response, flow cytometry, Jurkat-DNR cells
T1 sequence (P08183 whole entry): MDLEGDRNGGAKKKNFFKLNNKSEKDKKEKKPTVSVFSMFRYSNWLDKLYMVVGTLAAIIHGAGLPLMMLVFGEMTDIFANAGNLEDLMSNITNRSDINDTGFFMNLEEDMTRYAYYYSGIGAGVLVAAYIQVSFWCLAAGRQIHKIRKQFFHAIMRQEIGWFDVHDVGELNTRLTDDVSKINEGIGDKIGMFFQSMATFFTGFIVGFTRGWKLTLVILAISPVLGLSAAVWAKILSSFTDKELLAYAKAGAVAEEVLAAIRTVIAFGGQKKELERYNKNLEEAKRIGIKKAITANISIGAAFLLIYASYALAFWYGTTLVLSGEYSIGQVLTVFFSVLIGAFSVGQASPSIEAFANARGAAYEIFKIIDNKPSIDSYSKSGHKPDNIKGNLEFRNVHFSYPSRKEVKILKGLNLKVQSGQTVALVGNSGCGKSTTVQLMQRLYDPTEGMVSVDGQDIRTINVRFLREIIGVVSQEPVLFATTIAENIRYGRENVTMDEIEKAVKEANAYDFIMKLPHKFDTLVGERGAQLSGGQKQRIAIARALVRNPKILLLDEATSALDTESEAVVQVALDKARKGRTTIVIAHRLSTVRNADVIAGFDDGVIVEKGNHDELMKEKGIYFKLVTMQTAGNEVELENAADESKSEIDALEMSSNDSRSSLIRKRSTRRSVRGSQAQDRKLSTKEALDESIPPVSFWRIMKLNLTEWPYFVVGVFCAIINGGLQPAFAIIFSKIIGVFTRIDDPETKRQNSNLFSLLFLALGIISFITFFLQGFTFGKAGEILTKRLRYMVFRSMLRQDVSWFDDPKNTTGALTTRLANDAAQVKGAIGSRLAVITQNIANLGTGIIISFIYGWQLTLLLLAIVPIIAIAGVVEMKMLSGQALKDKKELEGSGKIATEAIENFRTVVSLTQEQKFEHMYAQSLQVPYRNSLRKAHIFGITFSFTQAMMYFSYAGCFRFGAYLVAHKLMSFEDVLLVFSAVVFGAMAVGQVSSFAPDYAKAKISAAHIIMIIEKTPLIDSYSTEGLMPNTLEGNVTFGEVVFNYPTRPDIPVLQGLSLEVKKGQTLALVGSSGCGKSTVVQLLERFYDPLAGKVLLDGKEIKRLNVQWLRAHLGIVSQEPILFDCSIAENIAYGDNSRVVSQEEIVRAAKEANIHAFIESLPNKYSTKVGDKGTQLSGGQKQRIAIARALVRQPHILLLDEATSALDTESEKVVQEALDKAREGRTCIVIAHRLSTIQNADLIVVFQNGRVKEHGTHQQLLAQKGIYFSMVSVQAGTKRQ

[4] = test system: Igrov1/T8 derived tumors; test: Preliminary in vivo study, ABCG2 resistant tumors, combination with topotecan; set-up: species or system CB-17 SCID mice; settings: for tumor size: intratumoral, daily, 0 to 96 hr, n = 3, p < 0.001
[5] = molecular target: T2, ABCG2 (Homo sapiens, UniProt Q9UNQ0); test: JC-1 efflux inhibition dose-response, flow cytometry, Ig-MXP3 cells; assay type: cell-based
T2 sequence (Q9UNQ0 1-655): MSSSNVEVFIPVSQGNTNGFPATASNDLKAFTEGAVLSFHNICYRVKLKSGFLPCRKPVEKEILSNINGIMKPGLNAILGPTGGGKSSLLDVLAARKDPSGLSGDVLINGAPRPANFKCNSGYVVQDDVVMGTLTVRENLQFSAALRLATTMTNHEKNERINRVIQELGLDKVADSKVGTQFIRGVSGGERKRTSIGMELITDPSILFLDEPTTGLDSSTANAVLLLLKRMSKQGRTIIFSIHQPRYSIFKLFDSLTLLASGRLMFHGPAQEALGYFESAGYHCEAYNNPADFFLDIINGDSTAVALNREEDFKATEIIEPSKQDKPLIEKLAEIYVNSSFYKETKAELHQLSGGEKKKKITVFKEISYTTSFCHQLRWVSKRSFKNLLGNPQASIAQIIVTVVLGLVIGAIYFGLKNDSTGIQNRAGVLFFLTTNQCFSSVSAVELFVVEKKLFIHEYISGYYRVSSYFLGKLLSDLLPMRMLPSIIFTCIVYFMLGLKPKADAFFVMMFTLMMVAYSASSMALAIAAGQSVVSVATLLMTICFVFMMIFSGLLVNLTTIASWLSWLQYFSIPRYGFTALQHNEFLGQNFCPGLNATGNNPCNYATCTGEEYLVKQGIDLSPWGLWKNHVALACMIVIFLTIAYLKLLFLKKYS

[6] = molecular target: T1, ABCB1; test: Chemoreversal secondary assay
[7] = molecular target: T2, ABCG2; test: Chemoreversal secondary assay
[8] = test system: non-resistant (ABCG2 non-expressing) parental tumor cells; test: Topotecan killing of parental tumor cells; assay type: cell-based; settings: read-out: EC50 parental cells
[9] = test system: drug resistant (ABCG2 expressing) tumor cells; test: Topotecan killing of drug resistant tumor cells; assay type: cell-based; settings: read-out: EC50 resistant cells

## O=C(c1ccoc1)N1CCN(c2cc(-c3ccco3)nc3cc(-c4ccccc4)nn23)CC1 [Compound 1]
[1]
  ABCB1 TD50: 5.52 µM
[2]
  ABCG2 TD50: 18.30 µM
[3]; read-out: ABCB1 EC50, efflux assay, as worded
  EC50: 4.65 µM
[4]; 100 nM of 1 with 150 nM TPT
  tumor size: dramatically reduced tumor size; also recorded: Significant tumor reduction
[5]; JC-1 efflux reporter system
  higher potency in ABCG2 than Ko143: approximately 100 fold
[5]; quotient of average ABCB1 IC50 and average ABCG2 IC50, JC-1 efflux assay
  ∼Fold G2 Selective: 36 fold and 35.8 fold
[5]; read-out: ABCG2 EC50, efflux assay, as worded
  EC50: 0.13 µM

## CN(C)C(=O)CCSC(SCCC(=O)O)c1cccc(/C=C/c2ccc3ccc(Cl)cc3n2)c1 (stereo not drawn) [Compound 5, MK571, reference compound]
[3]
  IC50: > 50 µM
[6]
  EC50: 20.4 µM
[7]
  EC50: 57.4 µM
[5]
  IC50: > 50 µM

## Cc1nc2cc(-c3cccc(F)c3)nn2c(N2CCN(C(=O)c3ccco3)CC2)c1C [Compound 7]
[4]; 500 nM of 7 with 150 nM TPT
  tumor size: dramatically reduced tumor size; also recorded: Significant tumor reduction

## CC[C@@]1(O)C(=O)OCc2c1cc1n(c2=O)Cc2cc3c(CN(C)C)c(O)ccc3nc2-1 [TPT, topotecan hydrochloride hydrate]
[8]
  EC50: 0.007 µM
[9]
  EC50: 0.311 µM
[4]; 150 nM TPT alone, intratumoral (data not shown)
  growth of tumors: did not affect the growth of tumors

— PMC3623016 (Journal of biomolecular screening, 2012)
